From patent publication EP4722219A1 (Gan & Lee Pharmaceuticals Co., Ltd., priority 2023, dated 2024)

Legend:
AR protein = molecular target: T1, AR protein (Homo sapiens, UniProt P10275); assay: AR protein degradation in VCaP cells (Western blot); type: cell-based; conditions: 8h
T1 construct: host or cells: VCaP
T1 sequence (P10275 1-920): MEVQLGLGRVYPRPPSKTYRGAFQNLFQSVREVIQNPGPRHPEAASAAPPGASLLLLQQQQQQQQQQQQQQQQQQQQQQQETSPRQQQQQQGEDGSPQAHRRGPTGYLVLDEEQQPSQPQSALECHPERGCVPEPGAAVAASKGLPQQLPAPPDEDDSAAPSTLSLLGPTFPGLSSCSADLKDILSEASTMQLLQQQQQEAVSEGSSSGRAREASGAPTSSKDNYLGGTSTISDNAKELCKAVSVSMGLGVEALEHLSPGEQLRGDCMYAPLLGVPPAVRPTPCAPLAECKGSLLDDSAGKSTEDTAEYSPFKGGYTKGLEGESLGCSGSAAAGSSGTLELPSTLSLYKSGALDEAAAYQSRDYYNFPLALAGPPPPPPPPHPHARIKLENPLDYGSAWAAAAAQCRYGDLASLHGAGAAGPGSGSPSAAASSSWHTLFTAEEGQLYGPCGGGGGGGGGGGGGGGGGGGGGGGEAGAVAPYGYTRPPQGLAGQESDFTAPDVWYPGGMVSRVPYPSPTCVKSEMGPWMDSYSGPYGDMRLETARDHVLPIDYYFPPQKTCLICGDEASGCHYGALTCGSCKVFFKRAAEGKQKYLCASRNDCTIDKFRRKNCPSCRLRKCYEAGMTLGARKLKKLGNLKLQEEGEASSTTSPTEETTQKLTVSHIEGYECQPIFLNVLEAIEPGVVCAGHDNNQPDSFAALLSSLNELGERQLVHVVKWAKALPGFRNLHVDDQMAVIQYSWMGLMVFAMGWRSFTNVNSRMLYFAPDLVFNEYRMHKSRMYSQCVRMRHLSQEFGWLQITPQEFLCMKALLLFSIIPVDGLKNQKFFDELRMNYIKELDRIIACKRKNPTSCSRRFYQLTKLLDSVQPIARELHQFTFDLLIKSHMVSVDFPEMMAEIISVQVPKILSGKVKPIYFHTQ
How it was run: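 AR-positive VCaP human prostate cancer cells grown in DMEM with 10% FBS were plated in six-well plates at 3×10^5 cells/well and incubated overnight. Compounds were then added at 1 µL/well alongside a solvent control and incubated for 8h. Lysates in RIPA buffer with protease inhibitor were quantified by BCA and run by SDS-PAGE. AR was detected by Western blot, and degradation was calculated from band grayscale normalized to GAPDH.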

VCaP cells = assay: Inhibition of VCaP cell proliferation (WST-8); type: cell-based; conditions: 168 hours
How it was run: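 Proliferation was read on day 9 as WST-8 absorbance at 450 nm after VCaP cells (15,000/well, DMEM/10% FBS, 37°C) were exposed from day 2 to compound at 9 points, 5-fold serial dilution, top final concentration 10 µM.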

Degradation rate of AR protein in VCaP cells (AR protein; 0.5 nM) [%]	Degradation rate of AR protein in VCaP cells (AR protein; 5 nM) [%]	IC50 (VCaP cells) [nM]	Compound	AR protein degradation rate at fixed concentration (%) at 0.0005 µM (AR protein; 0.5 nM) [%]	AR protein degradation rate at fixed concentration (%) at 0.005 µM (AR protein; 5 nM) [%]	IC50 (VCaP cells; Homo sapiens) [nM]
			COc1cc(O[C@H]2C(C)(C)[C@H](NC(=O)c3ccc(N4CCC(N5CC6(CCC7(CC6)COc6c7ccc7c6CN(C6CCC(=O)NC6=O)C7=O)C5)CC4)cc3)C2(C)C)ccc1C#N (stereo partly drawn) [A-P-2]	50	83	0.06
9	80	779	COc1cc(O[C@H]2C(C)(C)[C@H](NC(=O)c3ccc(N4CCC(CN5CCN(c6ccc(C(=O)N[C@H]7CCC(=O)NC7=O)c(F)c6)CC5)CC4)cc3)C2(C)C)ccc1C#N [ARV-766, reference compound]			
			COc1cc(O[C@H]2C(C)(C)[C@H](NC(=O)c3ccc(N4CCC(F)(CN5CCC6(CC5)COc5cc7c(cc56)n(C)c(=O)n7C5CCC(=O)NC5=O)CC4)cc3)C2(C)C)ccc1C#N (stereo partly drawn) [A-P-13]	44	77	4.3
			COc1cc(O[C@H]2CC[C@H](NC(=O)c3ccc(N4CCC(N5CCC6(CC5)COc5cc7c(cc56)n(C)c(=O)n7C5CCC(=O)NC5=O)CC4)nn3)CC2)ccc1C#N (stereo partly drawn) [A-P-18, N-((1r,4r)-4-(4-cyano-3-methoxyphenoxy)cyclohexyl)-6-(4-(3-(2,6-dioxopyridyl-3-yl)-1-methyl-2-oxo-2,3-dihydro-1H,6H-spiro[benzofuro[5,6-d]imidazole-7,4'-piperidin]-1'-yl)piperidin-1-yl)pyridazine-3-carboxamide]	76	73	< 0.0051
			COc1cc(O[C@H]2C(C)(C)[C@H](NC(=O)c3ccc(N4CCC(C)(CN5CCC6(CCc7cc(C(=O)N[C@H]8CCC(=O)NC8=O)c(F)cc7O6)CC5)CC4)cc3)C2(C)C)ccc1C#N [A-P-31, 1'-((1-((4-((1r,3r)-3-(4-cyano-3-methoxyphenoxy)-2,2,4,4-tetramethylcyclobutyl)carbamoyl)phenyl)-4-methylpiperidin-4-yl)methyl)-N-((S)-2,6-dioxopiperidin-3-yl)-7-fluorospiro[2,4'-piperidin]-6-carboxamide]	-13	41	3170
			C[C@H]1CC2(CCN(c3ccc(C(=O)N4CCC(CN5CCC6(CCc7cc(C(=O)N[C@H]8CCC(=O)NC8=O)c(F)cc7O6)CC5)CC4)cc3)CC2)CN1c1ccc(C#N)c(Cl)c1 [A-P-35, 1'-((1-(4-((S)-2-(3-chloro-4-cyanophenyl)-3-methyl-2,8-diazaspiro[4.5]decan-8-yl)benzoyl)piperidin-4-yl)methyl)-N-((S)-2,6-dioxopiperidin-3-yl)-7-fluorospiro[chroman-2,4'-piperidin]-6-carboxamide]	9	18	4
56	84		COc1cc(O[C@H]2C(C)(C)[C@H](NC(=O)c3ccc(N4CCC(CN5CCC6(CCc7cc(C(=O)N[C@H]8CCC(=O)NC8=O)c(F)cc7O6)CC5)CC4)nc3)C2(C)C)ccc1C#N [A-P-33, 1'-((1-(5-(((1R,3R)-3-(4-cyano-3-methoxyphenoxy)-2,2,4,4-tetramethylcyclobutyl)carbamoyl)pyridin-2-yl)piperidin-4-yl)methyl)-N-((S)-2,6-dioxopiperidin-3-yl)-7-fluorospiro[chroman-2,4'-piperidin]-6-carboxamide]			450
			C[C@H]1CC2(CCN(c3ccc(N4CCC(CN5CCC6(CCc7cc(C(=O)N[C@H]8CCC(=O)NC8=O)c(F)cc7O6)CC5)CC4)cc3)CC2)CN1c1ccc(C#N)c(Cl)c1 [A-P-42, 1'-((1-(4-((S)-2-(3-chloro-4-cyanophenyl)-3-methyl-2,8-diazaspiro[4.5]decan-8-yl)phenyl)piperidin-4-yl)methyl)-N-((S)-2,6-dioxopiperidin-3-yl)-7-fluorospiro[chroman-2,4'-piperidin]-6-carboxamide]	-40	-4	> 10000

Compound	Degradation rate of AR protein in VCaP cells (AR protein; 0.5 nM) [%]	Degradation rate of AR protein in VCaP cells (AR protein; 5 nM) [%]	IC50 (VCaP cells) [nM]	AR protein degradation rate at fixed concentration (%) at 0.0005 µM (AR protein; 0.5 nM) [%]	AR protein degradation rate at fixed concentration (%) at 0.005 µM (AR protein; 5 nM) [%]	IC50 (VCaP cells; Homo sapiens) [nM]
COc1cc(O[C@H]2C(C)(C)[C@H](NC(=O)c3ccc(N4CCC(CN5CC6(CCC7(CC6)COc6c7ccc7c6CN(C6CCC(=O)NC6=O)C7=O)C5)CC4)cc3)C2(C)C)ccc1C#N (relative stereo) [A-P-3]	53	87				0.017
